Reference: US10517867B2, “Posaconazole derivative, pharmaceutical composition and use thereof” (priority 2016, dated 2019)

Assays:
[1] = In vitro metabolic stability in rat plasma; type: in vitro ADME; conditions: rat, plasma, 37° C., 10 μM compound, read-out: Rat plasma T1/2
Experimental: (§1) This example detects the metabolic stability of the compounds of the present disclosure in human (rat) plasma and intestinal S9 in vitro. In a human (rat) plasma reaction system, 990 μl of human (rat) plasma was taken and incubated at 37° C. for 5 minutes, and 10 μl of the compound mother liquor was used to initiate the reaction. In the human (rat) intestinal S9 stability experiment, in the order shown in Table 2 below, the samples were added and incubated in a 37° C. water bath to initiate the reaction, each sample performed in triplicates. Respectively, at 1 minute, 2 minutes, 5 minutes, 15 minutes, 30 minutes after the reaction began, 100 μL of each was taken and added to a centrifuge tube containing 400 μL of 0° C. precooled internal standard working solution. The reaction was terminated, vortexed and mixed for 1 minute, centrifuged at 10000×g for 10 minutes in a 4° C. precooled high-speed centrifuge, and the supernatant was detected with HPLC. The test results were used to calculate metabolic half-life using WinNonlin (version 6.2 Pharsight, Mountain View, Calif.) with a non-compartmental model.
(§2) Compound stock solution concentration: 1 mM
(§3) Reaction matrix: human (rat) plasma, intestinal S9 purchased from Research Institute for Liver Diseases (Shanghai) Co., Ltd.

[2] = Determination of solubility in deionized water (HPLC, external standard); conditions: 25 °C, water, thermodynamic from solid
[3] = In vitro metabolic stability in human plasma; type: in vitro ADME; conditions: human, plasma, 37° C., 10 μM compound, read-out: Human plasma T1/2
Experimental: as §1, §2, §3

[4] = tested on: Candida albicans ATCC10231; experiment: Systemic fungal infection in mice, intragastric administration; type: in vivo, ICR mice; conditions: Candida albicans, ATCC10231, po
Experimental: (§4) ICR mice, weighing 18-22 g, male, provided by Hubei Experimental Animal Center.
Prior to the experiment, a small amount of Candida albicans was picked from an SDA medium kept at 4° C. with an inoculation loop and inoculated into 1 ml YPD culture medium, cultured at 30° C. with 200 rpm shaking and activated for 16 hours, so that the fungus was in the late stage of exponential growth. Counted with a hemocytometer and the fungal solution concentration was adjusted to 1×10^3 to 5×10^3 CFU/ml with RPMI1640 medium. Monoclonal Candida albicans on SDA plate was picked up, inoculated into 1 ml YPD (Yeast Extract Peptone Dextrose Medium, the same below) culture medium, cultured at 35° C., 200 rpm for 16 hours until late exponential growth phase. Candida albicans was inoculated into fresh medium for culturing for 6 hours at 1%, centrifuged at 1000×g for 5 minutes, washed with physiological saline three times until the supernatant was colorless, counted with a hemocytometer, and the cell concentration was adjusted to 5×10^6 cells/ml. A tail vein injection of 0.1 ml/10 g caused a systemic fungal infection in mice. […] A total of 7 days of observations were performed. All dead mice were burned with ethanol.

[5] = In vitro metabolic stability in human intestine S9; type: in vitro ADME; conditions: human; 37° C., 10 μM compound, 1 mg/mL S9, NADPH regeneration system; read-out: Human intestine S9 T1/2
Experimental: as §1, §2, §3

[6] = tested on: Candida albicans ATCC10231; experiment: Systemic fungal infection in mice, intravenous administration; type: in vivo, ICR mice
Experimental: as §4
Prior to the experiment, a small amount of Candida albicans was picked from an SDA (sacharomyces agar, the same below) medium kept at 4° C. with an inoculation loop and inoculated into 1 ml YPD (Yeast Extract Peptone Dextrose Medium) culture medium, cultured at 30° C. with 200 rpm shaking and activated for 16 hours, so that the fungus was in the late stage of exponential growth. Counted with a hemocytometer and the fungal solution concentration was adjusted to 1×10^3-5×10^3 CFU/ml with RPMI1640 medium (Roswell Park Memorial Institute 1640, the same below). Monoclonal Candida albicans on SDA plate was picked up, inoculated into 1 ml YPD (Yeast Extract Peptone Dextrose Medium, the same below) culture medium, cultured at 35° C., 200 rpm for 16 hours until late exponential growth phase. Candida albicans was inoculated into fresh medium for culturing for 6 hours at 1%, centrifuged at 1000×g for 5 minutes, washed with physiological saline three times until the supernatant was colorless, counted with a hemocytometer, and the cell concentration was adjusted to 5×10^6 cells/ml. A tail vein injection of 0.1 ml/10 g caused a systemic fungal infection in mice. […] A total of 7 days of observations were performed. All dead mice were burned with ethanol.

[7] = In vitro metabolic stability in rat intestine S9; type: in vitro ADME; conditions: rat, pH 7.4; 37° C., 10 μM compound, 1 mg/mL S9, NADPH regeneration system; read-out: Rat intestine S9 T1/2
Experimental: as §1, §2, §3

[8] = 24 h, read-out: survival rate of mice, day 1, 20 mg/kg intragastric once daily for 5 days, day 1
[9] = 48 h, read-out: survival rate of mice, day 2, 20 mg/kg intragastric once daily for 5 days, day 2
[10] = 72 h, read-out: survival rate of mice, day 3, 20 mg/kg intragastric once daily for 5 days, day 3
[11] = 96 h, read-out: survival rate of mice, day 4, 20 mg/kg intragastric once daily for 5 days, day 4
[12] = 120 h, read-out: survival rate of mice, day 5, 20 mg/kg intragastric once daily for 5 days, day 5
[13] = 144 h, read-out: survival rate of mice, day 6, 20 mg/kg intragastric once daily for 5 days, day 6
[14] = 168 h, read-out: survival rate of mice, day 7, 20 mg/kg intragastric once daily for 5 days, day 7
[15] = 24 h, read-out: survival rate of mice, day 1
[16] = 48 h, read-out: survival rate of mice, day 2
[17] = 72 h, read-out: survival rate of mice, day 3
[18] = 96 h, read-out: survival rate of mice, day 4
[19] = 120 h, read-out: survival rate of mice, day 5
[20] = 144 h, read-out: survival rate of mice, day 6
[21] = 168 h, read-out: survival rate of mice, day 7

Compound	half-life at 10 µM [1] [min]	solubility at 30 min [2] [mg/mL]	half-life at 10 µM [3] [min]	responders at 20 mg/kg [4, 8] [%]	responders at 20 mg/kg [4, 9] [%]	responders at 20 mg/kg [4, 10] [%]	responders at 20 mg/kg [4, 11] [%]	responders at 20 mg/kg [4, 12] [%]	responders at 20 mg/kg [4, 13] [%]	responders at 20 mg/kg [4, 14] [%]	half-life at 10 µM [5] [min]	responders at 20 mg/kg [6, 15] [%]	responders at 20 mg/kg [6, 16] [%]	responders at 20 mg/kg [6, 17] [%]	responders at 20 mg/kg [6, 18] [%]	responders at 20 mg/kg [6, 19] [%]	responders at 20 mg/kg [6, 20] [%]	responders at 20 mg/kg [6, 21] [%]	half-life at 10 µM [7] [min]
CC[C@@H]([C@H](C)OC(=O)OC(C)OC(=O)CCCCCOP(=O)([O-])[O-])n1ncn(-c2ccc(N3CCN(c4ccc(OC[C@@H]5CO[C@@](Cn6cncn6)(c6ccc(F)cc6F)C5)cc4)CC3)cc2)c1=O.[Na+].[Na+] (some centres unmarked) [ST0063]	1.21 ± 0.75	> 50	0.85 ± 0.45	90	90	80	80	80	80	80	16.3 ± 2.12	100	100	90	90	90	90	90	19.4 ± 5.69
CC[C@@H](C(C)OC(=O)OC(C)OC(=O)CCCCCCOP(=O)([O-])[O-])n1ncn(-c2ccc(N3CCN(c4ccc(OC[C@@H]5CO[C@@](Cn6cncn6)(c6ccc(F)cc6F)C5)cc4)CC3)cc2)c1=O.[Na+].[Na+] (some centres unmarked) [ST0070]	1.12 ± 0.56	> 50	0.95 ± 0.31	100	90	90	90	80	70	70	20.2 ± 8.02	100	90	90	90	90	90	90	17.6 ± 5.85
